Test results from PubChem BioAssay AID1963424 (Molecular Pharmacology Branch, DTP, NCI, 2024).

System: 327498-153-R-J2-PDC complex spheroid growth, % test/control
Test: Anticancer human tumor 327498-153-R-J2-PDC patient-derived uterine carcinosarcoma cell line growth inhibition [Asc]
Conditions: for IC50: curve of first compound; for viability, T/C: stronger effect = lower value
Protocol: Multicellular complex tumor spheroid response to apoptosis pathway targeting inhibitors Alrizomadlin, Pelcitoclax, and Dasminapant in combination with a variety of drugs and investigational agents in selected tumor cell lines
The MDM2 inhibitor alrizomadlin, the Bcl-2/Bcl-xL inhibitor pelcitoclax, and the IAPs inhibitor dasminapant were evaluated both individually and in combination with standard of care and investigational anticancer small molecules within a complex spheroid model of solid tumors. . Complex spheroids include a stromal component modeled by human endothelial cells (HUVEC) and fibroblasts modeled by human mesenchymal stem cells (MSCs). The concentration ranges selected for each drug and investigational agent were based upon clinically achievable concentrations if the clinical Cmax of the agent was known.
Compounds. The drugs and investigational agents: alrizomadlin (APG-115; NSC831270), pelcitoclax (APG-1252; NSC835773), dasminapant (APG-1387;NSC834197), TAK-243 (NSC785004), copanlisib (NSC809693), olaparib (NSC753686), talazoparib (NSC767125), cobimetinib (NSC 768068), eltanexor (KPT-8602, NSC 794443), abemaciclib (NSC 768073), sotorasib (NSC818433), adagrasib (NSC 831453), MRTX-1133 (NSC 836407), Iadademestat (ORY1001, NSC 806812), and RMC-4630 (NSC839698), were obtained from the NCI Developmental Therapeutics Program Chemical Repository. The FDA-approved anticancer drug set is available from the Developmental Therapeutics Program at https://dtp.cancer.gov/organization/dscb/obtaining/available plates.htm. […] The stock solutions were prepared in dimethyl sulfoxide (DMSO, Sigma-Aldrich, St. Louis, MO, cat. D2650) at 800-fold the tested concentration and stored at -70 degrees C prior to their use. All drugs and investigational agents were tested over a range starting from a high concentration at or near the clinical Cmax and decreasing in half-log increments. If the clinical Cmax for an agent had not been determined, the highest concentration tested was 10 microM.
The patient-derived cancer (PDC) cell lines include five colon adenocarcinomas: 186277-243-T-J2-PDC, 616215-338-R-J1-PDC, 439559-082-T-J2-PDC, 463943-066-T-J2-PDC, and 519858-162-T-J1-PDC; three pancreatic carcinomas: 323965-272-R-J2-PDC, 521955-158-R6-J3-PDC, and 521955-158-R2-J5-PDC; two uterine sarcomas: 327498-152-R-J2-PDC and 993429-296-R-J1-PDC; two rhabdomyosarcomas: 755483-174-R-J1-PDC and 772245-204-R-J1-PDC; two soft tissue sarcomas: 126254-015-R-J1-PDC and 494315-158-R-J1-PDC; two malignant fibrous histiocytomas: 317291-083-R-J1-PDC and 596521-263-R-J1-PDC; two breast carcinomas: 171881-019-R-J1-PDC and 885512-296-R-J2-PDC; and one ovarian carcinoma: 6556581-035-R-J-PDC were obtained from the NCI PDMR, (https://pdmr.cancer.gov). The established cell lines HSSY-2 synovial sarcoma (RRID:CVCL 8719), SYO-1 synovial sarcoma (RRID:CVCL_7146), MPNST malignant peripheral neural sheath tumor were obtained from the Sloan Kettering Institute. The following established cell lines were purchased from the American Type Culture Collection (ATCC, Manassas, VA), Sor the received from the NCI repository:, PANC-1 pancreatic carcinoma (CRL-1469, RRID:CVCL_0480), OVCAR-5 ovarian carcinoma (RRID:CVCL_1628), OVCAR-8 ovarian carcinoma (RRID:CVCL_1629), , MCF-7 breast carcinoma (CRL-12584, RRID:CVCL_0031), MDA-MB-231 breast carcinoma (CRL-12532, RRID:CVCL_0062), NCI-H1876 small cell lung carcinoma (CRL-5902, RRID:CVCL_1503), NCI-H510A small cell lung carcinoma (HTB-184, RRID:CVCL_1565), NCI-H1417 (CRL-5869, RRID:CVCL_1469), and NCI-H196 small cell lung carcinoma (CRL-5823, RRID:CVCL_1509). Dr. Peter Houghton (Greehey Children's Cancer Research Institute, University of Texas Health Science Center, San Antonio, TX) provided Rh-18 rhabdomyosarcoma (RRID:CVCL_1659). Pooled donor human umbilical vein endothelial cells (HUVEC, Lonza, cat. CC-2519) and human mesenchymal stem cells (hMSC, Lonza, cat. PT-2501) were purchased from Lonza (Walkersville, MD).
Cell Culture. […]
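Further: spheroids exposed to compound for 7 days after 3 days of growth.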
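Wherever viability, T/C is given: 100% = DMSO vehicle control wells.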

Q: With `NC(=O)C(=Cn1cnc(-c2cc(C(F)(F)F)cc(C(F)(F)F)c2)n1)c1cncnc1` + CCN1C(C(=O)NC23CCC(C(=O)O)(CC2)CC3)C(c2cccc(Cl)c2F)C2(C(=O)Nc3cc(Cl)ccc32)C12CCCCC2 as the compound, how does the IC50 (second compound 0.03 µM) read?
A: 24.8 nM

Q: What about the IC50 (second compound 0.0949 µM) of the same compound?
A: 8.01 nM

Q: What about the IC50 (second compound 0.3 µM) of the same compound?
A: < 0.949 nM

Q: What about the IC50 (second compound 0.949 µM) of the same compound?
A: < 0.949 nM

Q: What about the IC50 (second compound 3 µM) of the same compound?
A: < 0.949 nM

Q: What about the viability, T/C (second compound 0.03 µM, first compound 0.000949 µM) of the same compound?
A: 102%

Q: And the viability, T/C (second compound 0.03 µM, first compound 0.003 µM)?
A: 83.2%

Q: And the viability, T/C (second compound 0.03 µM, first compound 0.00949 µM)?
A: 75.5%

Q: What about the viability, T/C (second compound 0.03 µM, first compound 0.03 µM) of the same compound?
A: 49.4%

Q: And the viability, T/C (second compound 0.03 µM, first compound 0.0949 µM)?
A: 8.49%

Q: And the viability, T/C (second compound 0.03 µM, first compound 0.3 µM)?
A: 1.47%

Q: What about the viability, T/C (second compound 0.0949 µM, first compound 0.000949 µM) of the same compound?
A: 73.5%

Q: What about the viability, T/C (second compound 0.0949 µM, first compound 0.003 µM) of the same compound?
A: 70.8%

Q: And the viability, T/C (second compound 0.0949 µM, first compound 0.00949 µM)?
A: 45.9%

Q: What about the viability, T/C (second compound 0.0949 µM, first compound 0.03 µM) of the same compound?
A: 16.1%

Q: And the viability, T/C (second compound 0.0949 µM, first compound 0.0949 µM)?
A: 5.19%

Q: And the viability, T/C (second compound 0.0949 µM, first compound 0.3 µM)?
A: 0.5%

Q: And the viability, T/C (second compound 0.3 µM, first compound 0.000949 µM)?
A: 40.5%

Q: What about the viability, T/C (second compound 0.3 µM, first compound 0.003 µM) of the same compound?
A: 33.2%

Q: What about the viability, T/C (second compound 0.3 µM, first compound 0.00949 µM) of the same compound?
A: 22.8%

Q: What about the viability, T/C (second compound 0.3 µM, first compound 0.03 µM) of the same compound?
A: 5.64%

Q: And the viability, T/C (second compound 0.3 µM, first compound 0.0949 µM)?
A: 1.54%

Q: And the viability, T/C (second compound 0.3 µM, first compound 0.3 µM)?
A: 0.36%

Q: What about the viability, T/C (second compound 0.949 µM, first compound 0.000949 µM) of the same compound?
A: 9.07%

Q: What about the viability, T/C (second compound 0.949 µM, first compound 0.003 µM) of the same compound?
A: 5.81%

Q: What about the viability, T/C (second compound 0.949 µM, first compound 0.00949 µM) of the same compound?
A: 5.57%

Q: And the viability, T/C (second compound 0.949 µM, first compound 0.03 µM)?
A: 1.96%

Q: And the viability, T/C (second compound 0.949 µM, first compound 0.0949 µM)?
A: 0.72%

Q: And the viability, T/C (second compound 0.949 µM, first compound 0.3 µM)?
A: 0.32%

Q: What about the viability, T/C (second compound 3 µM, first compound 0.000949 µM) of the same compound?
A: 4.84%

Q: What about the viability, T/C (second compound 3 µM, first compound 0.003 µM) of the same compound?
A: 2.37%

Q: And the viability, T/C (second compound 3 µM, first compound 0.00949 µM)?
A: 1.32%

Q: And the viability, T/C (second compound 3 µM, first compound 0.03 µM)?
A: 1%

Q: What about the viability, T/C (second compound 3 µM, first compound 0.0949 µM) of the same compound?
A: 0.92%

Q: And the viability, T/C (second compound 3 µM, first compound 0.3 µM)?
A: 0.41%

Q: Which IC50 (second compound 0.03 µM) does the source give for `NC1CCC(NC2CC2c2ccccc2)CC1` (stereo not given) + CCN1C(C(=O)NC23CCC(C(=O)O)(CC2)CC3)C(c2cccc(Cl)c2F)C2(C(=O)Nc3cc(Cl)ccc32)C12CCCCC2 here?
A: > 100 nM

Q: And the IC50 (second compound 0.0949 µM)?
A: > 100 nM

Q: And the IC50 (second compound 0.3 µM)?
A: < 0.316 nM

Q: What about the IC50 (second compound 0.949 µM) of the same compound?
A: < 0.316 nM

Q: What about the IC50 (second compound 3 µM) of the same compound?
A: < 0.316 nM

Q: And the viability, T/C (second compound 0.03 µM, first compound 0.000316 µM)?
A: 103%

Q: And the viability, T/C (second compound 0.03 µM, first compound 0.001 µM)?
A: 94.5%

Q: And the viability, T/C (second compound 0.03 µM, first compound 0.00316 µM)?
A: 93.8%

Q: What about the viability, T/C (second compound 0.03 µM, first compound 0.01 µM) of the same compound?
A: 92.4%

Q: And the viability, T/C (second compound 0.03 µM, first compound 0.0316 µM)?
A: 103%

Q: And the viability, T/C (second compound 0.03 µM, first compound 0.1 µM)?
A: 97.3%

Q: What about the viability, T/C (second compound 0.0949 µM, first compound 0.000316 µM) of the same compound?
A: 84.3%

Q: And the viability, T/C (second compound 0.0949 µM, first compound 0.001 µM)?
A: 84.4%

Q: What about the viability, T/C (second compound 0.0949 µM, first compound 0.00316 µM) of the same compound?
A: 83.4%

Q: And the viability, T/C (second compound 0.0949 µM, first compound 0.01 µM)?
A: 84.9%

Q: And the viability, T/C (second compound 0.0949 µM, first compound 0.0316 µM)?
A: 83.9%

Q: What about the viability, T/C (second compound 0.0949 µM, first compound 0.1 µM) of the same compound?
A: 87.4%

Q: And the viability, T/C (second compound 0.3 µM, first compound 0.000316 µM)?
A: 53%

Q: And the viability, T/C (second compound 0.3 µM, first compound 0.001 µM)?
A: 47.9%

Q: And the viability, T/C (second compound 0.3 µM, first compound 0.00316 µM)?
A: 43.8%

Q: What about the viability, T/C (second compound 0.3 µM, first compound 0.01 µM) of the same compound?
A: 39.1%

Q: And the viability, T/C (second compound 0.3 µM, first compound 0.0316 µM)?
A: 49.8%

Q: What about the viability, T/C (second compound 0.3 µM, first compound 0.1 µM) of the same compound?
A: 43.6%

Q: And the viability, T/C (second compound 0.949 µM, first compound 0.000316 µM)?
A: 10.8%

Q: And the viability, T/C (second compound 0.949 µM, first compound 0.001 µM)?
A: 12.7%

Q: What about the viability, T/C (second compound 0.949 µM, first compound 0.00316 µM) of the same compound?
A: 15.8%

Q: What about the viability, T/C (second compound 0.949 µM, first compound 0.01 µM) of the same compound?
A: 11.6%

Q: And the viability, T/C (second compound 0.949 µM, first compound 0.0316 µM)?
A: 14.7%

Q: And the viability, T/C (second compound 0.949 µM, first compound 0.1 µM)?
A: 16.5%

Q: What about the viability, T/C (second compound 3 µM, first compound 0.000316 µM) of the same compound?
A: 4.55%

Q: What about the viability, T/C (second compound 3 µM, first compound 0.001 µM) of the same compound?
A: 5.4%

Q: What about the viability, T/C (second compound 3 µM, first compound 0.00316 µM) of the same compound?
A: 2.47%

Q: And the viability, T/C (second compound 3 µM, first compound 0.01 µM)?
A: 7.42%

Q: What about the viability, T/C (second compound 3 µM, first compound 0.0316 µM) of the same compound?
A: 5.29%

Q: What about the viability, T/C (second compound 3 µM, first compound 0.1 µM) of the same compound?
A: 4.14%
